# In US20160213651A1, “PIDOTIMOD FOR USE IN THE TREATMENT OF INFLAMMATION-ASSOCIATED DISEASES” (POLICHEM S.A., priority 2013, published 2016):
# Square brackets hold non-standard residues; d marks the D form. Peptide text beside a SMILES is read from it. pGlu = O=C1CC[C@@H](C(=O)O)N1; Thz = O=C(O)[C@@H]1CSCN1
# Columns and labels:
# NLRP12 [1] = assay: NLRP12 mRNA expression in MonoMac 6 cells (transcriptional array, quantitative Real-Time PCR); type: cell-based, human
# Method: (§1) 1. Culture of human monocytes. Peripheral blood mononuclear cells (PBMCs) were obtained by peripheral blood (freshly drawn or buffy coats). Monocytes were then derived from PBMCs by positive selection using anti-CD14 paramagnetic beads (Miltenyi Biotec) as described (Marini et al., 2008). Upon purification, cells were shortly cultured (from 24 to 72 hours) in complete culture medium (RPMI 1640 complemented with 10% of fetal bovine serum certified low endotoxin).
# (§2) 2. Cell treatment with Pidotimod. PBMCs, purified primary human monocytes or MonoMac 6were treated with Pidotimod, at concentrations ranging from 1 to 25 μg/mL and, for different times. In some experiments, after 6 to 48 hours from the beginning of Pidotimod treatment, cells were washed and cultured for 6-24 hours in the presence and absence of TLR 1-9 optimal ligands (Human TLR1-9 Agonist kit, Invivogen).
# (§3) 3. Evaluation of gene expression involved in Pidotimod activity. Upon stimulation, cells were harvested and total RNA was extracted using the RNAeasy mini kit (Qiagen). RNA was then retro-transcribed and subjected to amplification. Real-time PCR was performed using the “Human “RT2 Profiler PCR microarray kit” according to the manufacturer's protocol (SABbiosciences, Qiagen). […]
# (§4) 5. […] Data obtained were analysed using the 2^−ΔΔCt method using Relative Quantification Study software (Applied Biosystems). […]
# [2] = tested on: PBMCs and/or purified monocytes; assay: ELISA quantification of inflammatory molecules in cell supernatants after TLR stimulation; type: cell-based, human
# Method: as §1, §2
# 6. ELISA for the quantification of proinflammatory molecules induced by TLR stimulation. The increase of cytokine synthesis is the signal of cellular response to TLR stimulation. Pidotimod disciplines the extent of inflammation by upregulating the expression of NLRP12 which reduces the amplification of inflammatory signals triggered by TLR activation. […] The presence of IL-6, IL-8, TNF-α, MCP-1 and IL-1β was quantified in the cultural medium through ELISA assays (Endogen).
# primary human monocytes = assay: mRNA of inflammatory mediators in primary human monocytes treated with TLR agonists; type: cell-based
# Method: as §1, §2
# 5. Transcription array. The Pidotimod ability to reduce the inflammation induced by potent danger signals as LPS or other PAMPs was highlighted by evaluating the level of mRNA specific for effector inflammatory molecules. To this scope total RNA was extracted using the semiautomated extraction system NucliSens Easymag (Biomerieux). […] Data obtained were analysed using the 2^−ΔΔCt method using Relative Quantification Study software (Applied Biosystems). […]
# NLRP12 [3] = assay: NLRP12 downregulation induced in monocytes by TLR stimulation, Pidotimod pretreatment; type: cell-based, human; settings: monocytes pretreated with Pidotimod
# Method: as §1, §2
# (§5) 4. Immunoblot and immunoprecipitation assays. Cell lysates were prepared in lysis buffer containing a protease inhibitor cocktail (Roche). […] To detect the presence of cytoplasmic NLRP12, a first incubation with the goat polyclonal antibody to NLRP12 (Santa Cruz Biotechnology) was followed by the addiction of donkey-anti-goat-HRP secondary antibody. […]
# as §4
# NLRP12 [4] = assay: NLRP12 mRNA expression in primary monocytes from peripheral blood of healthy donors; type: cell-based, human; settings: primary monocytes from 8 different subjects, 25 and 5 μg/ml (FIG. 2)
# Method: as §1, §2, §3, §4
# NLRP12 [5] = assay: NLRP12 protein expression in Monomac6 by immunoprecipitation and immunoblotting; type: cell-based, human; settings: Monomac6, 5 μg/ml, 36 hours, immunoblotting upon immunoprecipitation (FIG. 3)
# Method: as §1, §2, §5
compound,measurement,setting,value
"O=C1CC[C@@H](C(=O)N2CSC[C@H]2C(=O)O)N1 [Pidotimod, (4R)-3-(5-oxo-L-prolyl)-1,3-thiazolidine-4-carboxylic acid] ([pGlu]-[Thz]-OH)",NLRP12 mRNA increase as compared to unstimulated cells,"NLRP12 [1]; 25 μg/ml, 16 hours of treatment, gene array confirmed by Real-Time PCR",two-fold
same,time of peak of increase in NLRP12 expression,"NLRP12 [1]; 25 and 5 μg/ml, tested 6, 16, 24, 48 hours (FIG. 1)",24 h
same,inflammatory molecules in cell supernatants by ELISA,"[2]; purified monocytes, TLR stimulation",confirmed
same,inflammatory molecules by ELISA in total PBMC,[2]; total PBMC instead of purified monocytes,reproducible
same,"IL-6, IL-8, TNF-α and IL-1β mRNA induced by TLR agonists",primary human monocytes,controls the production of these mediators at the transcriptional level
same,levels of specific MCP-1 (mRNA) induced by TLR agonists,primary human monocytes; 8 samples from 8 donors (FIG. 4),consistently diminished
same,NLRP12 expression at messenger level after TLR stimulation,NLRP12 [3]; representative TLR with optimal agonist (FIG. 5 left panel),able to counteract the decrement of NLRP12 expression
same,NLRP12 expression at protein level after TLR stimulation,NLRP12 [3]; representative TLR with optimal agonist (FIG. 5 right panel),able to counteract the decrement of NLRP12 expression
same,NLRP12 mRNA expression vs non-treated cells,NLRP12 [4],increase of NLRP12 mRNA expression
same,NLRP12 protein expression level vs untreated cells,NLRP12 [5],higher amount of NLRP12 protein
